This assay has as its target T1, HsRAD51 (Homo sapiens, UniProt Q06609).
T1 sequence (Q06609 2-339): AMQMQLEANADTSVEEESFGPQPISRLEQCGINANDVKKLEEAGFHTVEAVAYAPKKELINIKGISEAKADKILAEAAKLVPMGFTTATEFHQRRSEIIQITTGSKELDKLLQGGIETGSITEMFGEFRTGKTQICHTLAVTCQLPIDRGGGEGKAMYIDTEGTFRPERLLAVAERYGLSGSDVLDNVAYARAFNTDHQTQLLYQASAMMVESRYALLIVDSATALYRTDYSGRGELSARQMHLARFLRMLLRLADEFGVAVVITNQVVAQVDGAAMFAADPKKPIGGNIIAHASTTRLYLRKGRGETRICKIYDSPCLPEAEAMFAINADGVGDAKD
The assay is described as follows: LC-MS/MS of the covalent adduct at C319. It counts as binding.

The structures appear in SMILES notation.

By IC50 is commonly meant the concentration at which inhibition is half-maximal. High values mean weaker potency, low ones greater potency.

For `O=C1C(Cl)=C(N2CCOCC2)C(=O)N1c1ccc(Cl)c(Cl)c1` [RI-1, 3-chloro-1-(3,4-dichlorophenyl)-4-(4-morpholinyl)-1H-pyrrole-2,5-dione], the IC50 was in the range of 5 to 30 µM.

The values above are taken from paper PMC3424541 (2012).
